Experimental data as given in article PMC2676116 (Molecular cancer therapeutics, 2009).

What was measured:
Tdp1 [1] = molecular target: T1, Tdp1 (Homo sapiens, UniProt Q9NUW8); conditions: cited from earlier work
Tdp1 [2] = molecular target: T1, Tdp1; experiment: Tdp1 AlphaScreen HTS assay; type: biochemical; conditions: for Tdp1 inhibition (in words): AlphaScreen primary / follow-up HTS assay, Fig. 5C
Tdp1 [3] = molecular target: T1, Tdp1; experiment: Secondary radiolabel gel-based assay; type: biochemical; conditions: Fig. 5B & C
H493R Tdp1 mutant = H493R Tdp1 mutant (Homo sapiens, UniProt Q9NUW8, H493R); experiment: SCAN1 Tdp1 mutant covalent Tdp1-DNA intermediate; type: biochemical; conditions: for accumulation of the covalent Tdp1-DNA intermediate: 10 μM concentration, H493R Tdp1 100 nM
H493R Tdp1 mutant, sequence (Q9NUW8 whole entry H493R): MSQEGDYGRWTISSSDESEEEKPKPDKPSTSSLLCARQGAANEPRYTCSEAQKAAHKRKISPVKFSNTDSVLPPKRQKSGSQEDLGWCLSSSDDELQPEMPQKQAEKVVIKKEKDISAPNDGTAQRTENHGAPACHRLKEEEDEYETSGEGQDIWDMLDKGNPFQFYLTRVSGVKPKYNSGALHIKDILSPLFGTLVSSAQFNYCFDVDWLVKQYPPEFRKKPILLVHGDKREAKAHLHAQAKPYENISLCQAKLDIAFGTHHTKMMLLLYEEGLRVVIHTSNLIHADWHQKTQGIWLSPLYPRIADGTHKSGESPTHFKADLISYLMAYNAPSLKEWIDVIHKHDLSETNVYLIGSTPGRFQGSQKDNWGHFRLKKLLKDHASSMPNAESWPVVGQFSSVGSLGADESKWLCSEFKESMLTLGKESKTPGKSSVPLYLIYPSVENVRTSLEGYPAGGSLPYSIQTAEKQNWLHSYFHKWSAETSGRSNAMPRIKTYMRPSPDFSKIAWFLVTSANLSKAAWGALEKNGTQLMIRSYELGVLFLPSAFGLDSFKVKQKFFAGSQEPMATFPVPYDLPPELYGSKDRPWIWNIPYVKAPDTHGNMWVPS

CD-45 associated PTP = conditions: cited from earlier work

T1 sequence (Q9NUW8 whole entry): as the sequence (Q9NUW8 whole entry H493R) above, with R493H counted along it

Row | Compound | concentration at which Tdp1 is inhibited (in words) (Tdp1 [1]) | Tdp1 inhibition (in words) (Tdp1 [3]) | Tdp1 inhibition (in words) (Tdp1 [2]) | accumulation of the covalent Tdp1-DNA intermediate (H493R Tdp1 mutant) | other results
1 | N=C(N)c1ccc(-c2ccc(-c3ccc(C(=N)N)cc3)o2)cc1 [Furamidine, furamidine] | micromolar concentrations | – | – | – | –
2 | [O]=[V]([O-])([O-])[O-] [vanadate] | millimolar concentrations | – | – | – | Tdp1 inhibition potency (in words) (Tdp1 [2]; AlphaScreen assay, 384-well, Fig. 3C): inhibition in the sub-millimolar range
3 | CN(N=O)c1cc(O)ccc1O [dephostatin] | – | only a trace level of inhibition | only trace inhibition | much weaker effect | Tdp1 inhibition (in words) (Tdp1 [3]; listed as Dephostatin): only trace inhibition; effect on binding of the Tdp1 DNA substrate (DNA trapping) (H493R Tdp1 mutant; SCAN1 Tdp1 mutant): almost no effect
4 | [O]=[W](=[O])([O-])[O-] [tungstate] | millimolar concentrations | – | – | – | –
5 | CN(N=O)c1ccc(O)c(O)c1 [methyl-3,4-dephostatin] | – | sub-micromolar concentration | sub-micromolar concentration | completely prevented | inhibition of CD-45 associated PTP (CD-45 associated PTP): does not inhibit
